Laboratory results taken from US11505592B2, “Diagnosis and therapy of multiple sclerosis” (PRINDEX S.R.L., priority 2015, dated 2022).
Bridges are numbered along the chain shown (N, C = ends). Where no end group is shown, it is not given here. dibromoxylene = α,α'-dibromoxylene, used to cyclize the peptide by reaction with its two cysteines

What was measured:
MS sera = test: PEPSCAN-based ELISA, binding of MS sera to library peptides; parameters: species or system human; details: ELISA binding value, MS sera n = 9
Excerpt: (§1) The linear and CLIPS peptides are synthesized based on the amino acid sequence of the target protein using standard Fmoc-chemistry and deprotected using […] with scavengers. The constrained peptides are synthesized on chemical scaffolds in order to reconstruct conformational epitopes, using Chemically Linked Peptides on Scaffolds (CLIPS) technology (Timmerman et al. (2007). For example, the single looped peptides are synthesized containing a dicysteine, which was cyclized by treating with alpha, alpha′-dibromoxylene and the size of the loop is varied by introducing cysteine residues at variable spacing. If other cysteines besides the newly introduced cysteines are present, they are replaced by alanine. The side-chains of the multiple cysteines in the peptides are coupled to CLIPS templates by reacting onto credit-card format polypropylene PEPSCAN cards (455 peptide formats/card) with a 0.5 mM solution of CLIPS template such as 1,3-bis (bromomethyl) benzene in ammonium bicarbonate (20 mM, pH 7.9)/acetonitrile (1:1(v/v)). The cards are gently shaken in the solution for 30 to 60 minutes while completely covered in solution. Finally, the cards are washed extensively with excess of H2O and sonicated in distrupt-buffer containing 1 percent SDS/0.1 percent beta-mercaptoethanol in PBS (pH 7.2) at 70° C. for 30 minutes, followed by sonication in H2O for another 45 minutes.
(§2) The binding of antibody to each peptide is tested in a PEPSCAN-based ELISA. The 455-well credit card format polypropylene cards containing the covalently linked peptides are incubated with primary antibody solution for example consisting of 1/1000 diluted serum in blocking solution, for example 4% horse serum, 5% ovalbumin (w/v) in PBS/1% Tween. After washing, the peptides are incubated with a 1/1000 dilution of antibody peroxidase conjugate for one hour at 25° C. After washing, the peroxidase substrate 2,2′-azino-di-3-ethylbenzthiazoline sulfonate (ABTS) and 2 microlitres of 3 percent H2O2 are added. After one hour, the color development are measured. The color development are quantified with a charge coupled device (CCD)-camera and an image processing system (Slootstra et al., 1996).
(§3) The raw data are optical values obtained by a CCD-camera calibrated to export absorption values compatible with a standard 96-well plate ELISA-reader. First the CCD-camera makes a picture of the card before peroxidase coloring and then again a picture after the peroxidase coloring. These two pictures are substracted from each other yielding a binding value for each peptide.
(§4) All peptides have been synthesized in a peptide array format and the binding of 20 different sera to all peptide libraries were measured in an ELISA based set up following the procedure described in detail in the method section “Peptide synthesis and screening assays”. In particular 2 sets of experiments were performed on the 2 libraries by using 2 different dilutions of the human patients sera. In the first set of experiment the 20 sera were used at 1:2500 dilutions, while in the second experiment the dilution of the sera was 1:1000. The binding of the different sera to all peptides was quantified and analyzed in detail (Tables 1 and 2, FIGS. 15A, B, C, D and […]

CTRL sera = test: PEPSCAN-based ELISA, binding of control (CTRL) sera to library peptides; parameters: species or system human; details: ELISA binding value, CTRLs n = 10
Excerpt: as §1, §2, §3, §4

Sequence	MEAN MS (MS sera; NOX2 library)	MEAN CTRL (CTRL sera; NOX2 library)	MEAN MS (MS sera; 5HT2A receptor library)	MEAN CTRL (CTRL sera; 5HT2A receptor library)
CAVHNITVSEQKISEWCQNESYLNFARKRIKNC [SEQ ID NO: 126]	685.667	370.15	–	–
CAVHNITVSEQKISEWCSYLNFARKRIKNPEGC [SEQ ID NO: 133]	648.556	375.55	–	–
CAVHNITVSEQKISEWCVSEQKISEWGKIKESC [SEQ ID NO: 123]	697.000	392.5	–	–
CDSKVFKEGSSLLACKESSNEDVIGALLC [Peptide 16]	–	–	604.03	347.50
CDSKVFKEGSSLLACMDILSEENTSLSSC [Peptide 28]	–	–	429.00	236.60
CDSKVFKEGSSLLACSENRTNLSSEGSLC [Peptide 46]	–	–	512.94	296.70
CDSKVFKEGSSLLACSGEANTSDAFNWTC [Peptide 37]	–	–	623.06	333.75
CENTSLSSTTNSLMCMDILSEENTSLSSC [Peptide 17]	–	–	316.22	175.00
CERIVRGQTAESLAVHCQNESYLNFARKRIKNC [SEQ ID NO: 75]	833.444	455.55	–	–
CESLAVHNITVSEQKICGDRQNESYLNFARKRC [SEQ ID NO: 136]	730.278	409.15	–	–
CESLAVHNITVSEQKICQNESYLNFARKRIKNC [SEQ ID NO: 74]	689.556	354.9	–	–
CESLAVHNITVSEQKICSYLNFARKRIKNPEGC [SEQ ID NO: 79]	639.611	357.1	–	–
CEWSVNARVNNSDPYSCPYSVALSELGDRQNEC [SEQ ID NO: 72]	428.167	225.5	–	–
CEWSVNARVNNSDPYSCQNESYLNFARKRIKNC [SEQ ID NO: 103]	714.944	372.8	–	–
CEWSVNARVNNSDPYSCVSEQKISEWGKIKESC [SEQ ID NO: 155]	760.083	433.775	–	–
CFNVEWSVNARVNNSDCGDRQNESYLNFARKRC [SEQ ID NO: 129]	792.889	423.15	–	–
CFNVEWSVNARVNNSDCVSEQKISEWGKIKESC [SEQ ID NO: 141]	784.944	447.325	–	–
CFNWTVDSENRTNLCMDILSEENTSLSSC [Peptide 30]	–	–	312.00	174.90
CGDRQNESYLNFARKRCGDRQNESYLNFARKRC [SEQ ID NO: 85]	775.500	404.05	–	–
CGDRQNESYLNFARKRCQNESYLNFARKRIKNC [SEQ ID NO: 70]	831.278	412.7	–	–
CGDRQNESYLNFARKRCSYLNFARKRIKNPEGC [SEQ ID NO: 131]	730.222	401.95	–	–
CGDRQNESYLNFARKRCVSEQKISEWGKIKESC [SEQ ID NO: 152]	805.278	461.6	–	–
CHGAERIVRGQTAESLCNFARKRIKNPEGGLYC [SEQ ID NO: 89]	733.889	404.6	–	–
CHGAERIVRGQTAESLCQKISEWGKIKESPIPC [SEQ ID NO: 101]	734.917	407.625	–	–
CHGAERIVRGQTAESLCQNESYLNFARKRIKNC [SEQ ID NO: 73]	748.111	407.2	–	–
CHGAERIVRGQTAESLCSYLNFARKRIKNPEGC [SEQ ID NO: 82]	755.722	417.5	–	–

Sequence	MEAN MS (MS sera; NOX2 library)	MEAN CTRL (CTRL sera; NOX2 library)	MEAN MS (MS sera; 5HT2A receptor library)	MEAN CTRL (CTRL sera; 5HT2A receptor library)
CITVSEQKISEAAKIKC (linker 1-17 via dibromoxylene (inferred)) [SEQ ID NO: 147]	703.000	383.25	–	–
CKISEWGKIKC [SEQ ID NO: 108]	672.833	367.95	–	–
CLGDRQNESYLAAARKC [SEQ ID NO: 145]	698.944	402.85	–	–
CLNFARKRIKC [SEQ ID NO: 87]	713.333	374.7	–	–
CLNFARKRIKNAAGGLC [SEQ ID NO: 92]	691.444	367	–	–
CLQDDSKVFKEGSSCKESSNEDVIGALLC [Peptide 48]	–	–	632.28	373.15
CLQDDSKVFKEGSSCMDILSEENTSLSSC [Peptide 7]	–	–	434.67	233.80
CLSEENTSLSSTTNCMDILSEENTSLSSC [Peptide 39]	–	–	303.50	184.40
CLSPSSLSLLHLQECMDILSEENTSLSSC [Peptide 10]	–	–	305.00	183.45
CLSPSSLSLLHLQECTVDSENRTNLSSEC [Peptide 27]	–	–	427.89	263.00
CLSSEGSLSPSSLSCMDILSEENTSLSSC [Peptide 26]	–	–	320.72	188.85
CLTILYGYRWPAASKLC [Peptide 41]	–	–	782.33	449.80
CLTILYGYRWPLPSCKESSNEDVIGALLC [Peptide 12]	–	–	629.14	350.93
CLTILYGYRWPLPSCLYGYRWPLPSKLSC [Peptide 40]	–	–	879.72	508.45
CLTILYGYRWPLPSCMDILSEENTSLSSC [Peptide 2]	–	–	421.56	228.85
CLTILYGYRWPLPSKLC [Peptide 35]	–	–	792.94	475.00
CLYGYRWPLPSKLSCKESSNEDVIGALLC [Peptide 20]	–	–	689.03	390.93
CLYGYRWPLPSKLSCMDILSEENTSLSSC [Peptide 4]	–	–	449.78	246.80
CLYGYRWPLPSKLSCSDAFNWTVDSENRC [Peptide 36]	–	–	511.11	298.55
CLYGYRWPLPSKLSCSGEANTSDAFNWTC [Peptide 43]	–	–	649.67	344.80
CLYGYRWPLPSKLSCYSNDFNSGEANTSC [Peptide 32]	–	–	555.67	288.50
CMDILSEENTSLSSCMQLNDDTRLYSNDC [Peptide 21]	–	–	392.28	223.85
CMDILSEENTSLSSCSKESSNEDVIGALC [Peptide 44]	–	–	432.33	266.55
CMQLNDDTRLYSNDCMDILSEENTSLSSC [Peptide 9]	–	–	379.67	212.40
CMQLNDDTRLYSNDCSGEANTSDAFNWTC [Peptide 15]	–	–	497.78	257.25
CNDDTRLYSNDFNSCMDILSEENTSLSSC [Peptide 24]	–	–	350.67	196.45
